Results published in patent US20250186405A1, “Compound For Use In Treating Narcolepsy” (Alkermes, Inc., priority 2023, published 2025).

System: subjects with narcolepsy type-1 (NT1)
Assay: Part 4 POC NT1: treatment-emergent adverse events, single doses, crossover
Assay type: in vivo, human
Method: Subjects were randomized to 1 of 4 sequences.
Each subject received three doses of Compound A, including 1, 3, and 8 mg, and a single dose of placebo. […] All subjects underwent the washout period and completed all 4-way randomized crossover periods.
With one exception, each subject received three doses of Compound A, including 1, 3, and 8 mg, and a single dose of placebo. One patient withdrew from the study after the first dose due to venous access complications. […] With the exception of one patient as noted above, all subjects underwent the washout period and completed all 4-way randomized crossover periods.

CS(=O)(=O)N[C@H]1CCCN2C(=O)COc3ccccc3C3CCC(CC3)OCC12 (stereo partly drawn) [Compound A, N-[(4S,4aR,7α,10α)-1,2,3,4,4a,5,7,8,9,10,16,17-dodecahydro-17-oxo-7,10-ethanopyrido[1,2-d][1,7,4]benzodioxaazacyclotridecin-4-yl]methanesulfonamide]
6 (66.7) n (%): Any TEAE (1 mg (N = 9)) | TEAE by Highest Severity: Mild (1 mg (N = 9))
5 (55.6) n (%): TEAE by Highest Relationship: Related (1 mg (N = 9)) | Any TEAE (3 mg (N = 9))
2 (22.2) n (%): TEAE Nausea (1 mg (N = 9)) | TEAE Dermatitis contact (3 mg (N = 9)) | TEAE Pollakiuria (3 mg (N = 9)) | TEAE by Highest Relationship: Not Related (3 mg (N = 9))
1 (11.1) n (%): TEAE Application site dermatitis (1 mg (N = 9)) | TEAE Decreased appetite (1 mg (N = 9)) | TEAE Dehydration (1 mg (N = 9)) | TEAE Dizziness (1 mg (N = 9)) | TEAE Salivary hypersecretion (1 mg (N = 9)) | TEAE Sinus tachycardia (1 mg (N = 9)) | TEAE by Highest Relationship: Not Related (1 mg (N = 9)) | TEAE Middle Insomnia (3 mg (N = 9)) | TEAE Salivary hypersecretion (3 mg (N = 9)) | TEAE Vascular access site injury (3 mg (N = 9)) | TEAE Vessel puncture site bruise (3 mg (N = 9))
2 (50.0) n (%): Any TEAE (3 mg (N = 4)) | TEAE by Highest Relationship: Not Related (3 mg (N = 4)) | TEAE by Highest Severity: Mild (3 mg (N = 4))
1 (25.0) n (%): Any TEAE (1 mg (N = 4)) | TEAE Application site dermatitis (1 mg (N = 4)) | TEAE by Highest Relationship: Not Related (1 mg (N = 4)) | TEAE by Highest Severity: Mild (1 mg (N = 4)) | TEAE Dermatitis contact (3 mg (N = 4)) | TEAE Procedural anxiety (3 mg (N = 4)) | TEAE Vascular access site injury (3 mg (N = 4)) | TEAE Vessel puncture site bruise (3 mg (N = 4))
0 n (%): AE Leading to Study Drug Discontinuation (1 mg (N = 4)) | Any SAEs (1 mg (N = 4)) | Death (1 mg (N = 4)) | TEAE Anaemia (1 mg (N = 4)) | TEAE Blood pressure increased (1 mg (N = 4)) | TEAE Bruxism (1 mg (N = 4)) | TEAE Dermatitis contact (1 mg (N = 4)) | TEAE Dizziness (1 mg (N = 4)) | TEAE Hyperhidrosis (1 mg (N = 4)) | TEAE Hyperlipidaemia (1 mg (N = 4)) | TEAE Insomnia (1 mg (N = 4)) | TEAE Pollakiuria (1 mg (N = 4)) | TEAE Procedural anxiety (1 mg (N = 4)) | TEAE Salivary hypersecretion (1 mg (N = 4)) | TEAE Vascular access site injury (1 mg (N = 4)) | TEAE Vessel puncture site bruise (1 mg (N = 4)) | TEAE by Highest Relationship: Related (1 mg (N = 4)) | TEAE by Highest Severity: Moderate (1 mg (N = 4)) | TEAE by Highest Severity: Severe (1 mg (N = 4)) | AE Leading to Study Drug Discontinuation (1 mg (N = 9)) | Any SAEs (1 mg (N = 9)) | Death (1 mg (N = 9)) | TEAE Anaemia (1 mg (N = 9)) | TEAE Back pain (1 mg (N = 9)) | TEAE Blood pressure increased (1 mg (N = 9)) | TEAE Bruxism (1 mg (N = 9)) | TEAE Dermatitis contact (1 mg (N = 9)) | TEAE Haemoglobin decreased (1 mg (N = 9)) | TEAE Headache (1 mg (N = 9)) | TEAE Hyperhidrosis (1 mg (N = 9)) | TEAE Hyperlipdaemia (1 mg (N = 9)) | TEAE Insomnia (1 mg (N = 9)) | TEAE Middle Insomnia (1 mg (N = 9)) | TEAE Pollakiuria (1 mg (N = 9)) | TEAE Vascular access site injury (1 mg (N = 9)) | TEAE Vessel puncture site bruise (1 mg (N = 9)) | TEAE Vessel puncture site pain (1 mg (N = 9)) | TEAE by Highest Severity: Moderate (1 mg (N = 9)) | TEAE by Highest Severity: Severe (1 mg (N = 9)) | AE Leading to Study Drug Discontinuation (3 mg (N = 4)) | Any SAEs (3 mg (N = 4)) | Death (3 mg (N = 4)) | TEAE Anaemia (3 mg (N = 4)) | TEAE Application site dermatitis (3 mg (N = 4)) | TEAE Blood pressure increased (3 mg (N = 4)) | TEAE Bruxism (3 mg (N = 4)) | TEAE Dizziness (3 mg (N = 4)) | TEAE Hyperhidrosis (3 mg (N = 4)) | TEAE Hyperlipidaemia (3 mg (N = 4)) | TEAE Insomnia (3 mg (N = 4)) | TEAE Pollakiuria (3 mg (N = 4)) | TEAE Salivary hypersecretion (3 mg (N = 4)) | TEAE by Highest Relationship: Related (3 mg (N = 4)) | TEAE by Highest Severity: Moderate (3 mg (N = 4)) | TEAE by Highest Severity: Severe (3 mg (N = 4)) | AE Leading to Study Drug Discontinuation (3 mg (N = 9)) | Any SAEs (3 mg (N = 9)) | Death (3 mg (N = 9)) | TEAE Anaemia (3 mg (N = 9)) | TEAE Application site dermatitis (3 mg (N = 9)) | TEAE Back pain (3 mg (N = 9)) | TEAE Blood pressure increased (3 mg (N = 9)) | TEAE Bruxism (3 mg (N = 9)) | TEAE Decreased appetite (3 mg (N = 9)) | TEAE Dehydration (3 mg (N = 9)) | TEAE Dizziness (3 mg (N = 9)) | TEAE Haemoglobin decreased (3 mg (N = 9)) | TEAE Headache (3 mg (N = 9)) | TEAE Hyperhidrosis (3 mg (N = 9)) | TEAE Hyperlipdaemia (3 mg (N = 9)) | TEAE Insomnia (3 mg (N = 9)) | TEAE Nausea (3 mg (N = 9)) | TEAE Sinus tachycardia (3 mg (N = 9)) | TEAE Vessel puncture site pain (3 mg (N = 9))
